Test results reported in PMC7719384 (Clinical and Translational Science, 2020).
Read-outs that look alike come from different tables or passages of the source. One block for each compound: values may come before it.

Tests used:
[1] = type: in vivo, human; details: rosuvastatin 10 mg; for AUC(0-inf) / half-life: plasma; for AUC(0-inf): AUC0–∞; for half-life: t ½
BCRP [2] = details: in vitro; cited from earlier work
BCRP [3] = biological target: T1, BCRP (Homo sapiens, UniProt Q9UNQ0); type: biochemical
T1 sequence (Q9UNQ0 1-655): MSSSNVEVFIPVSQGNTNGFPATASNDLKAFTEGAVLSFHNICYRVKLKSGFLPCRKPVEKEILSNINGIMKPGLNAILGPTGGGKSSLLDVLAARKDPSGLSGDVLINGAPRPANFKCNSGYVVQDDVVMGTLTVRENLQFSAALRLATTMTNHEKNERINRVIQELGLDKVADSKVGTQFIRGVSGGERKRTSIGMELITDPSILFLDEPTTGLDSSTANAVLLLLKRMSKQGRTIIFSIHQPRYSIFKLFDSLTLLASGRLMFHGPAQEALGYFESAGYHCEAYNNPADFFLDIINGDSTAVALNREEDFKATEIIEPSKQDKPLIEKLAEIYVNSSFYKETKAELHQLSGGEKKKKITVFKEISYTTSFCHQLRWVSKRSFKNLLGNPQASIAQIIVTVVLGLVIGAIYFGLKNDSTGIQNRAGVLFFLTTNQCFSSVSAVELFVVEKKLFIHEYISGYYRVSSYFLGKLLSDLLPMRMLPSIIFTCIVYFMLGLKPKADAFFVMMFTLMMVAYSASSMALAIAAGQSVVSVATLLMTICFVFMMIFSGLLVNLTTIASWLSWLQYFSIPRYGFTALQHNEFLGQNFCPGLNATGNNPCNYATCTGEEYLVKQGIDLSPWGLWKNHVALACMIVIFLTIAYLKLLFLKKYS

[4] = Pharmacokinetics of allopurinol and febuxostat in healthy volunteers; type: in vivo, human; details: for variation of AUC0–24 between individual participants / variation of Cmax between individual participants: 300 mg allopurinol or 120 mg febuxostat once daily
OATP1B3 = details: in vitro; cited from earlier work
OATP1B1 = details: in vitro; cited from earlier work
[5] = cited from earlier work
OATP2B1 = details: in vitro; cited from earlier work
[6] = tested on: breast cancer resistance protein (BCRP; encoded by ABCG2); details: in vitro; cited from earlier work
CYP2C19 = details: in vitro; cited from earlier work
CYP2D6 = details: in vitro; cited from earlier work
[7] = patients with established cardiovascular disease; cited from earlier work
[8] = in vivo in humans; cited from earlier work
[9] = mice; cited from earlier work
CYP1A2 = details: in vitro; cited from earlier work
[10] = in vivo in humans; cited from earlier work; remark: listed apart in the source
CYP3A4 = details: in vitro; cited from earlier work
CYP2C9 = details: in vitro; cited from earlier work
CYP2C8 = details: in vitro; cited from earlier work
[11] = cited from earlier work; remark: listed apart in the source
[12] = in vivo in humans; cited from earlier work; remark: listed apart in the source
[13] = 120 mg febuxostat once daily vs placebo
[14] = human, oral, allopurinol phase (300 mg once daily days 1–7), geometric mean (geometric CV)
[15] = human, oral, febuxostat phase (120 mg once daily days 4–7), geometric mean (geometric CV)

effect on the pharmacokinetics of rosuvastatin ([1]; 300 mg allopurinol once daily for 7 days vs placebo): no statistically significant effect | IC50 (BCRP [3]): > 200 µM | variation of AUC0–24 between individual participants [4]: 4.7 fold | variation of Cmax between individual participants [4]: 1.8 fold | AUC(0-t) ([4]; human, plasma, oral, 300 mg): 5700 ng·h/mL | Cmax ([4]; human, plasma, oral, 300 mg): 2000 ng/mL
SMILES: Oc1ncnc2[nH]ncc12 [allopurinol]
inhibition of BCRP (BCRP [2]): have not inhibited

SMILES: CC1=NN(c2ccc(C)c(C)c2)C(=O)/C1=N\Nc1cccc(-c2cccc(C(=O)O)c2)c1O [eltrombopag]
inhibition of OATP1B3 (OATP1B3): inhibits | inhibition of OATP1B1 (OATP1B1): inhibits | increase of rosuvastatin AUC [5]: 1.6 fold | inhibition of OATP2B1 (OATP2B1): inhibits

SMILES: Cc1nc(-c2ccc(OCC(C)C)c(C#N)c2)sc1C(=O)O [febuxostat]
inhibition of BCRP mediated transport of urate [6]: strongly inhibit | inhibition of CYP2C19 (CYP2C19): does not inhibit | inhibition of CYP2D6 (CYP2D6): weak inhibitor | effect on Clrenal of rosuvastatin [1, 13]: remained unaffected | effect on t ½ of rosuvastatin [1, 13]: remained unaffected | all-cause and cardiovascular mortality compared with allopurinol [7]: increases | increase of the AUC of desipramine [8]: 12% | exposure to the BCRP substrate sulfasalazine [9]: markedly increase | inhibition of CYP1A2 (CYP1A2): does not inhibit | IC50 (BCRP [3]): 0.35 µM | effect on the pharmacokinetics of rosiglitazone [10]: no effect | inhibition of CYP3A4 (CYP3A4): does not inhibit | inhibition of CYP2C9 (CYP2C9): does not inhibit | inhibition of CYP2C8 (CYP2C8): weak inhibitor | variation of AUC0–24 between individual participants [4]: 3.0 fold | variation of Cmax between individual participants [4]: 5.0 fold | increase of AUC0–24 in individuals homozygous for SLCO1B1 c.521T>C ([4]; compared with the noncarriers and one heterozygote, data not shown, preliminary finding): 1.8 fold | AUC(0-t) ([4]; human, plasma, oral, 120 mg): 12300 ng·h/mL | Cmax ([4]; human, plasma, oral, 120 mg): 4300 ng/mL | half-life ([4]; human, plasma, oral, 120 mg): 6 h

SMILES: O=c1[nH]c(=O)c2c[nH]nc2[nH]1 [oxypurinol]
inhibition of BCRP (BCRP [2]): have not inhibited

SMILES: O=C(O)C[C@H](O)C[C@H](O)/C=C/c1c(C2CC2)nc2ccccc2c1-c1ccc(F)cc1 [pitavastatin]
effect of the ABCG2 c.421C>A variant on AUC [11]: no significant effect

SMILES: CC[C@H](C)C(=O)O[C@H]1C[C@H](O)C=C2C=C[C@H](C)[C@H](CC[C@@H](O)C[C@@H](O)CC(=O)O)[C@H]21 [pravastatin]
effect of the ABCG2 c.421C>A variant on AUC [11]: no significant effect

CL renal ([1]; human, plasma and urine, oral, Clrenal, allopurinol phase (300 mg once daily days 1–7), geometric mean (geometric CV)): 225 mL/min | AUC(0-inf) [1, 14]: 53.5 ng·h/mL | AUC(0-inf) [1, 15]: 82.5 ng·h/mL | half-life [1, 14]: 10.9 h | half-life [1, 15]: 6.3 h | AUC0–∞, allopurinol phase to placebo phase ratio (90% CI) ([1]; geometric mean ratio): 1.26 (0.98–1.61); P = 0.13 | AUC0–∞, febuxostat phase to placebo phase ratio (90% CI) ([1]; geometric mean ratio): 1.93 (1.51–2.48); P = 0.001 | Clrenal, allopurinol phase to placebo phase ratio (90% CI) ([1]; geometric mean ratio): 0.86 (0.65–1.14); P = 0.36 | Clrenal, febuxostat phase to placebo phase ratio (90% CI) ([1]; geometric mean ratio): 0.82 (0.58–1.14); P = 0.30 | Cmax, allopurinol phase to placebo phase ratio (90% CI) ([1]; geometric mean ratio): 1.22 (1.02–1.47); P = 0.08 | Cmax, febuxostat phase to placebo phase ratio (90% CI) ([1]; geometric mean ratio): 2.13 (1.76–2.58); P = 5 × 10^−5 | t ½, allopurinol phase to placebo phase ratio (90% CI) ([1]; geometric mean ratio): 1.72 (1.03–2.85); P = 0.08 | t ½, febuxostat phase to placebo phase ratio (90% CI) ([1]; geometric mean ratio): 1.00 (0.75–1.33); P = 0.99
SMILES: CC(C)c1nc(N(C)S(C)(=O)=O)nc(-c2ccc(F)cc2)c1/C=C/[C@@H](O)C[C@@H](O)CC(=O)O [rosuvastatin]
Ae, amount excreted into urine ([1]; allopurinol phase (300 mg once daily days 1–7), geometric mean (geometric CV)): 0.45 (101%) mg | Ae, allopurinol phase to placebo phase ratio (90% CI) ([1]; geometric mean ratio): 0.99 (0.69–1.43); P = 0.98 | Ae, febuxostat phase to placebo phase ratio (90% CI) ([1]; geometric mean ratio): 1.76 (1.16–2.66); P = 0.03 | increase of AUC by homozygosity for SLCO1B1 c.521T>C [12]: 1.7–2.2 fold | increase of Cmax by homozygosity for SLCO1B1 c.521T>C [12]: 1.8–2.7 fold

SMILES: CCC(C)(C)C(=O)O[C@H]1C[C@@H](C)C=C2C=C[C@H](C)[C@H](CC[C@@H](O)C[C@@H](O)CC(=O)O)[C@H]21 [simvastatin acid]
effect of the ABCG2 c.421C>A variant on AUC [11]: no significant effect
